Patent US12516056B2, “Compounds for inhibition of janus kinase 1” (MANKIND PHARMA LTD., priority 2019, dated 2026)
Counter-ions that a name gives are not always drawn.

Legend:
Recombinant JAK1 = molecular target: T1, Recombinant JAK1 (Homo sapiens, UniProt P23458); experiment: JAK biochemical assay (LANCE Ultra TR-FRET), JAK1; conditions: recombinant JAK1, TR-FRET; read-out: Biochemical Assay (μM) JAK1
T1 construct: purchased Carna Biosciences
Method in brief: (§1)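 TR-FRET read-out of ULight substrate phosphorylation by recombinant kinase gives % inhibition relative to vehicle. The assay buffer is HEPES pH 7.5 with EGTA, MgCl2, DTT and Tween-20.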

Recombinant JAK2 = molecular target: T2, Recombinant JAK2 (Homo sapiens, UniProt O60674); experiment: JAK biochemical assay (LANCE Ultra TR-FRET), JAK2; conditions: recombinant JAK2, TR-FRET; read-out: Biochemical Assay (μM) JAK2
T2 construct: purchased Carna Biosciences
Method in brief: as §1

Recombinant JAK3 = molecular target: T3, Recombinant JAK3 (Homo sapiens, UniProt P52333); experiment: JAK biochemical assay (LANCE Ultra TR-FRET), JAK3; conditions: recombinant JAK3, TR-FRET; read-out: Biochemical Assay (μM) JAK3
T3 construct: purchased Carna Biosciences
T3 sequence (P52333 1-1124): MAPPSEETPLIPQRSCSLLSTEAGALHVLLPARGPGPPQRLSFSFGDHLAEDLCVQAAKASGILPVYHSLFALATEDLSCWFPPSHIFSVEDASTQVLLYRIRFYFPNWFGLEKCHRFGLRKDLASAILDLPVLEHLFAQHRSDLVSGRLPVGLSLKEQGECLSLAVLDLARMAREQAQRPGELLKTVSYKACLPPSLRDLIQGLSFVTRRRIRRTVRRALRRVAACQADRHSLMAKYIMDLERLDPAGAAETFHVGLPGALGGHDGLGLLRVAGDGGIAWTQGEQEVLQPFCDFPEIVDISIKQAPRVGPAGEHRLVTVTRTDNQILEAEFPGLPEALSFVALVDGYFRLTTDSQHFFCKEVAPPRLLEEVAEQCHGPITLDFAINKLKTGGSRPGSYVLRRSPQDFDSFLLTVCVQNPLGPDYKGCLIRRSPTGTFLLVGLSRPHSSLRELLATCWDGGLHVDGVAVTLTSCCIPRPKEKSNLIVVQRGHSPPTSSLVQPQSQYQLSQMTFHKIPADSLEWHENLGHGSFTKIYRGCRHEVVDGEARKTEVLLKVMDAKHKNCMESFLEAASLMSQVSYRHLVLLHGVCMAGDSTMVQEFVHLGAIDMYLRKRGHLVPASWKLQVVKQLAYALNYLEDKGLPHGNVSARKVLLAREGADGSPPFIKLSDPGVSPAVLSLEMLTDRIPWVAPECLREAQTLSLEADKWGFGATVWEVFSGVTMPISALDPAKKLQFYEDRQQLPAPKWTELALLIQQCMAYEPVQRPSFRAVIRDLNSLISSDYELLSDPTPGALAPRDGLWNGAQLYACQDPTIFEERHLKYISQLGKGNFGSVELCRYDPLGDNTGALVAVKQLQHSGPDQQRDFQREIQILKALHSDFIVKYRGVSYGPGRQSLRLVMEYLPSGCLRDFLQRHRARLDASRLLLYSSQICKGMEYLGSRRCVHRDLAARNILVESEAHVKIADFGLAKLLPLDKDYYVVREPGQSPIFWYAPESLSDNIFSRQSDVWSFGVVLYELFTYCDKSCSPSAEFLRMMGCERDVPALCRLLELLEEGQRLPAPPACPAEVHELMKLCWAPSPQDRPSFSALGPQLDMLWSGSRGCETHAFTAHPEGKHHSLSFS
Method in brief: as §1

Recombinant TYK2 = molecular target: T4, Recombinant TYK2 (Homo sapiens, UniProt P29597); experiment: JAK biochemical assay (LANCE Ultra TR-FRET), TYK2; conditions: recombinant TYK2, TR-FRET; read-out: Biochemical Assay (μM) TYK2
T4 construct: purchased Carna Biosciences
Method in brief: as §1

[1] = system: STAT3 phosphorylation by IL-6 in TF-1 cells; experiment: JAK cellular assay: STAT3 phosphorylation by IL-6 in TF-1 cells (HTRF); format: cell-based; conditions: Homo sapiens, TF-1, TF-1 cells, IL-6 30 ng/ml, pSTAT3 HTRF; read-out: Cell Based Assay (μM) TF-1/IL-6/pSTAT3
Method in brief: (§2)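 TF-1 cells starved overnight in low-serum OptiMEM, then 120,000/well in RPMI, preincubated with compound 30 min at 37 °C (0.2% DMSO final). Stimulation 20 min with IL-6 30 ng/ml (pSTAT3) or GMCSF 5 ng/ml (pSTAT5); lysate phospho-STAT by HTRF, unstimulated background subtracted.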

[2] = system: STAT5 phosphorylation by GMCSF in TF-1 cells; experiment: JAK cellular assay: STAT5 phosphorylation by GMCSF in TF-1 cells (HTRF); format: cell-based; conditions: Homo sapiens; TF-1 cells, GMCSF 5 ng/ml, pSTAT5 HTRF; read-out: Cell Based Assay (μM) TF-1/GMCSF/pSTAT5
Method in brief: as §2

[3] = system: STAT5 phosphorylation by IL-2 in HT-2 cells; experiment: STAT5 phosphorylation by IL-2 in HT-2 cells (HTRF); format: cell-based; conditions: HT2, HT-2 cells, IL-2 50 U/ml, pSTAT5 HTRF; read-out: Cell Based Assay (μM) HT-2/IL-2/pSTAT5
Method in brief: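 Starved HT-2 cells (120,000/well) were preincubated 30 min at 37 °C with compound (0.2% DMSO), then stimulated 20 min with human IL-2 (50 U/ml). pSTAT5 in lysates measured by HTRF, with unstimulated-cell background subtracted.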

[4] = system: IFN-γ production in NK 92 cells by IL-12; experiment: IFN-γ production in NK 92 cells by IL-12 (ELISA); conditions: NK92, IFN-γ secretion, read-out: Cell Based Assay (μM) NK-92/IL-2/IFN-γ

T4 sequence (P29597 whole entry): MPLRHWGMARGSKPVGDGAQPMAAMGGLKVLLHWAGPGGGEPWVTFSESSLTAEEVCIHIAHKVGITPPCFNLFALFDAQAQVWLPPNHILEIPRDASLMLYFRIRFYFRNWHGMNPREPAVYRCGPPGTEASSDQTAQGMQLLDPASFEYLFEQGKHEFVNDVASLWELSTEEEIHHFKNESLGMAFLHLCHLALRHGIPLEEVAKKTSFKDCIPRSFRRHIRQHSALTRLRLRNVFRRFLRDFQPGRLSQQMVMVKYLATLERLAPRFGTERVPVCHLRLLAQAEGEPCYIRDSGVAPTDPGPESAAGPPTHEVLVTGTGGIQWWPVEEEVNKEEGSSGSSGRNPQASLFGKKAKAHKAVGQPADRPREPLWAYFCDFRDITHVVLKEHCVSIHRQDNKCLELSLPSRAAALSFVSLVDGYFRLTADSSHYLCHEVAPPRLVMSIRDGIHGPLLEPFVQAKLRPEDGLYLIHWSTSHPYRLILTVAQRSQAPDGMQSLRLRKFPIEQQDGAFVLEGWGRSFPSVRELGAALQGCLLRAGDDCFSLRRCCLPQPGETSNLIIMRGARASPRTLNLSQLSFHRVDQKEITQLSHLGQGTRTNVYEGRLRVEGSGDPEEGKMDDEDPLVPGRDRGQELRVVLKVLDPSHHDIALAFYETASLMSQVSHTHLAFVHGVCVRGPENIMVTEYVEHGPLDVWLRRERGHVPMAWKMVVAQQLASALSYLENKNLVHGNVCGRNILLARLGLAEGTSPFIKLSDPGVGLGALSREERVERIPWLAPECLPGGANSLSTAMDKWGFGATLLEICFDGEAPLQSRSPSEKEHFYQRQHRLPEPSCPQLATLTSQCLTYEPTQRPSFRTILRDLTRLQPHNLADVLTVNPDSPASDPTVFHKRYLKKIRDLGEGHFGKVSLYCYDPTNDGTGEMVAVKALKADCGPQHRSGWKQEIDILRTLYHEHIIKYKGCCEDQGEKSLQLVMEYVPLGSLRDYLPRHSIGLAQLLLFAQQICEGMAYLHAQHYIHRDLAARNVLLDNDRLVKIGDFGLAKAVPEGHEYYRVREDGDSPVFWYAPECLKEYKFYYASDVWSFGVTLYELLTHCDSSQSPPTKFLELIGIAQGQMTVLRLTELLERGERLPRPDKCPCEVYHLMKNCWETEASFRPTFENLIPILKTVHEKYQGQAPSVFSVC
T2 sequence (O60674 whole entry): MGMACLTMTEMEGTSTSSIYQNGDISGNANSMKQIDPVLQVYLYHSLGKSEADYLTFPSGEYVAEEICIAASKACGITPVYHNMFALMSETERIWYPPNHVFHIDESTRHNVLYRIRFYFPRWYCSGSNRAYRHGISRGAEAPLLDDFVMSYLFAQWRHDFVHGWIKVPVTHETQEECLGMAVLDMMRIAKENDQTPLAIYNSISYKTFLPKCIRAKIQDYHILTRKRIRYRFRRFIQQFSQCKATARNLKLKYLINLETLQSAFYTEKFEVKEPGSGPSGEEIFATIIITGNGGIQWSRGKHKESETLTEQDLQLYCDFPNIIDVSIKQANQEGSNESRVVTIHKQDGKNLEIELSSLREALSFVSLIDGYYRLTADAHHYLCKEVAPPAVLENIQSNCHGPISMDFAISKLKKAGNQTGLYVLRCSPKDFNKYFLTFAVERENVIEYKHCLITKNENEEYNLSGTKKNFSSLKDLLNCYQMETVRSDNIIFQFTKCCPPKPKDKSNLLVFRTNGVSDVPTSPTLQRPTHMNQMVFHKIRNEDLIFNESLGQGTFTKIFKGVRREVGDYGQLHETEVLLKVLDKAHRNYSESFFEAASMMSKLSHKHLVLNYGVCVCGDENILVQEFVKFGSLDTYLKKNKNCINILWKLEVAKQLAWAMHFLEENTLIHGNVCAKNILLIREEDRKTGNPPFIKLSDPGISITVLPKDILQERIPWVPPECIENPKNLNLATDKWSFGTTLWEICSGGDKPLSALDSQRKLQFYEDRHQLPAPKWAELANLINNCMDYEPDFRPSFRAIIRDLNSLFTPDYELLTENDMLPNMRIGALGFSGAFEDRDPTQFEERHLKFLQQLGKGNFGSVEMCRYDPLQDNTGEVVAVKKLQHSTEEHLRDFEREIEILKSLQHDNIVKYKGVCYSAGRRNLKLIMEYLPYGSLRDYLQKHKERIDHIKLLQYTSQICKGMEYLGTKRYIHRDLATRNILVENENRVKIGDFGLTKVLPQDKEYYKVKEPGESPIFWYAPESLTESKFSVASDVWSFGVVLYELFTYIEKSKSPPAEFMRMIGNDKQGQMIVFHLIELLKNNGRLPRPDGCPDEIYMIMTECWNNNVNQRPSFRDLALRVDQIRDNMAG
T1 sequence (P23458 whole entry): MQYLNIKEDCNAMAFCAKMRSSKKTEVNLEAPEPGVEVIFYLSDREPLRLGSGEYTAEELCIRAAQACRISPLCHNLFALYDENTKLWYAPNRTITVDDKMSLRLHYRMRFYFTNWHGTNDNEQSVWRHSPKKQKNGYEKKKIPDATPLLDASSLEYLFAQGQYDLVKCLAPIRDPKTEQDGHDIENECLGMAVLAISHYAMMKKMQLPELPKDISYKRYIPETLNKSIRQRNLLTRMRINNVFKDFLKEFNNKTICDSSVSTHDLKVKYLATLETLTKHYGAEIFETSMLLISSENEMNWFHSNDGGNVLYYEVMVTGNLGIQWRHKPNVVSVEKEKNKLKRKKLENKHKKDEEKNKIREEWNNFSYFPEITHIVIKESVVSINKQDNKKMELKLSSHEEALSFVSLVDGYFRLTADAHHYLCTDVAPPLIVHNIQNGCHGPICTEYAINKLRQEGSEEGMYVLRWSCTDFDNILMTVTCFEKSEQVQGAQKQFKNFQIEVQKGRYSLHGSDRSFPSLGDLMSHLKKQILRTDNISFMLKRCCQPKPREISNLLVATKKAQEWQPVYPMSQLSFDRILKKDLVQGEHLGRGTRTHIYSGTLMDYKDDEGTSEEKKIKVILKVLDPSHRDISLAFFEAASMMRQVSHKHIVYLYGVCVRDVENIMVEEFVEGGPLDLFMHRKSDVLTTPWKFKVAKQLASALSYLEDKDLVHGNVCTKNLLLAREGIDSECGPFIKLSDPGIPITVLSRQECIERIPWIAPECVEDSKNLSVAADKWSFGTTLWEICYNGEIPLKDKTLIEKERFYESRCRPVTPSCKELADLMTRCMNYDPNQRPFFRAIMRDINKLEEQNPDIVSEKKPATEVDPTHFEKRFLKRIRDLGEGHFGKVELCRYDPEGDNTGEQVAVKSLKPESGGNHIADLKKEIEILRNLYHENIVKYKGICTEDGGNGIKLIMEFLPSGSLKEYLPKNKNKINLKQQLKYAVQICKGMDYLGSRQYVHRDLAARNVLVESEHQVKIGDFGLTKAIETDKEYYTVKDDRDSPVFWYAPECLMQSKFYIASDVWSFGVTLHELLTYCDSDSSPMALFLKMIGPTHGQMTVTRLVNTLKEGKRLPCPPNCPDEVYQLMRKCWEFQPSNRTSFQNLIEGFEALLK

Row | SMILES | IC50 (Recombinant JAK1) [µM] | IC50 (Recombinant JAK2) [µM] | IC50 (Recombinant JAK3) [µM] | IC50 (Recombinant TYK2) [µM] | IC50 [1] [µM] | IC50 [2] [µM] | IC50 [3] [µM] | IC50 [4] [µM]
1 | N#CCc1ccc(-n2cc(-c3ccnc4[nH]cnc34)cn2)nc1 [Example 1078, 2-(6-(4-(3H-imidazo[4,5-b]pyridin-7-yl)-1H-pyrazol-1-yl)pyridin-3-yl)acetonitrile] | 0.025 | 0.108 | 0.07 | > 1 | 1.05 | > 10 | > 1 | > 10
2 | CC(C)NCCC(c1ccc(-n2cc(-c3ccnc4[nH]cnc34)cn2)nc1)C(F)(F)F (centres unmarked) [Example 1203, 3-(6-(4-(3H-imidazo[4,5-b]pyridin-7-yl)-1H-pyrazol-1-yl)pyridin-3-yl)-4,4,4-trifluoro-N-isopropylbutan-1-amine] | < 0.1 | < 0.1 | < 0.1 | > 0.5 | > 0.1 | > 1 | > 0.5 | 
3 | CNCCOC(c1ccc(-n2cc(-c3ccnc4[nH]cnc34)cn2)nc1)C(F)(F)F (centres unmarked) [Example 1228, 2-(1-(6-(4-(3H-imidazo[4,5-b]pyridin-7-yl)-1H-pyrazol-1-yl)pyridin-3-yl)-2,2,2-trifluoroethoxy)-N-methylethanamine] | < 0.1 | < 0.1 | < 0.1 | > 0.1 | > 0.5 | > 1 | > 0.5 | 
4 | CC(C)NCCOC(c1ccc(-n2cc(-c3ccnc4[nH]cnc34)cn2)nc1)C(F)(F)F (centres unmarked) [Example 1241, N-(2-(1-(6-(4-(3H-imidazo[4,5-b]pyridin-7-yl)-1H-pyrazol-1-yl)pyridin-3-yl)-2,2,2-trifluoroethoxy)ethyl)propan-2-amine, TFA salt] | < 0.1 | > 0.1 | < 0.1 | > 1 | > 0.5 | > 1 | > 0.75 | 
5 | O[C@@](c1ccc(-n2cc(-c3ccnc4[nH]cnc34)cn2)nc1)(C1CCN(C2COC2)C1)C(F)(F)F (stereo partly drawn) [Example 1242, (R)-1-(6-(4-(3H-imidazo[4,5-b]pyridin-7-yl)-1H-pyrazol-1-yl)pyridin-3-yl)-2,2,2-trifluoro-1-(1-(oxetan-3-yl)pyrrolidin-3-yl)ethanol] | < 0.1 | < 0.1 | < 0.1 | > 1 | > 1 | > 1 | > 1 | 
6 | O[C@](c1ccc(-n2cc(-c3ccnc4[nH]cnc34)cn2)nc1)(C1CCN(C2COC2)C1)C(F)(F)F (stereo partly drawn) [Example 1243, (S)-1-(6-(4-(3H-imidazo[4,5-b]pyridin-7-yl)-1H-pyrazol-1-yl)pyridin-3-yl)-2,2,2-trifluoro-1-(1-(oxetan-3-yl)pyrrolidin-3-yl)ethanol] | < 0.1 | < 0.1 | < 0.1 | > 1 | > 1 | > 1 | > 1 | 

Results, then the compound that gave them:

Row | IC50 (Recombinant JAK1) [µM] | IC50 (Recombinant JAK2) [µM] | IC50 (Recombinant JAK3) [µM] | IC50 (Recombinant TYK2) [µM] | IC50 [1] [µM] | IC50 [2] [µM] | IC50 [3] [µM] | IC50 [4] [µM] | SMILES
7 | 0.015 |  | 0.041 | > 1 | 0.35 | > 1 | 0.9 | > 3 | CS(=O)(=O)CC[C@H](c1ccc(-n2cc(-c3ccnc4[nH]cnc34)cn2)nc1)C(F)(F)F [Example 1182, 7-(1-(5-((R)-1,1,1-trifluoro-4-(methylsulfonyl)butan-2-yl)pyridin-2-yl)-1H-pyrazol-4-yl)-3H-imidazo[4,5-b]pyridine]
8 | 0.002 | 0.015 | 0.004 | 0.39 | > 0.1 | > 1 | > 0.5 |  | CS(=O)(=O)CCC(O)(c1ccc(-n2cc(-c3ccnc4[nH]cnc34)cn2)nc1)C(F)(F)F (centres unmarked) [Example 1223, 2-(6-(4-(3H-imidazo[4,5-b]pyridin-7-yl)-1H-pyrazol-1-yl)pyridin-3-yl)-1,1,1-trifluoro-4-(methylsulfonyl)butan-2-ol]
9 | < 0.01 | > 0.03 | > 0.03 | > 1 | > 0.5 | > 1 | > 0.75 |  | CC(C)N1CCC([C@](O)(c2ccc(-n3cc(-c4ccnc5[nH]cnc45)cn3)nc2)C(F)(F)F)C1 (stereo partly drawn) [Example 1226, (S)-1-(6-(4-(3H-imidazo[4,5-b]pyridin-7-yl)-1H-pyrazol-1-yl)pyridin-3-yl)-2,2,2-trifluoro-1-(1-isopropylpyrrolidin-3-yl)ethanol]
10 | < 0.1 | < 0.1 | < 0.1 | > 0.1 | > 0.1 | > 0.75 | > 0.5 |  | N#CCCC(O)(c1ccc(-n2cc(-c3ccnc4[nH]cnc34)cn2)nc1)C(F)(F)F (centres unmarked) [Example 1227, 4-(6-(4-(3H-imidazo[4,5-b]pyridin-7-yl)-1H-pyrazol-1-yl)pyridin-3-yl)-5,5,5-trifluoro-4-hydroxypentanenitrile]
11 | 0.0003 | 0.005 |  |  | 0.05 | 1.5 | 0.15 | > 3 | CN1CC(C(O)(c2ccc(-n3cc(-c4ccnc5[nH]cnc45)cn3)nc2)C(F)(F)F)C1 (centres unmarked) [Example 1231, 1-(6-(4-(3H-imidazo[4,5-b]pyridin-7-yl)-1H-pyrazol-1-yl)pyridin-3-yl)-2,2,2-trifluoro-1-(1-methylazetidin-3-yl)ethanol]
12 | 0.006 |  |  | 0.67 | 0.14 | > 1 | 0.47 | > 1 | CN1CCC([C@](O)(c2ccc(-n3cc(-c4ccnc5[nH]cnc45)cn3)nc2)C(F)(F)F)C1 (stereo partly drawn) [Example 1234, (S)-1-(6-(4-(3H-imidazo[4,5-b]pyridin-7-yl)-1H-pyrazol-1-yl)pyridin-3-yl)-2,2,2-trifluoro-1-(1-methylpyrrolidin-3-yl)ethanol]
13 |  | > 0.03 |  | > 1 | 0.36 | > 1 | 0.55 | > 1 | CN1CCC([C@@](O)(c2ccc(-n3cc(-c4ccnc5[nH]cnc45)cn3)nc2)C(F)(F)F)C1 (stereo partly drawn) [Example 1235, (R)-1-(6-(4-(3H-imidazo[4,5-b]pyridin-7-yl)-1H-pyrazol-1-yl)pyridin-3-yl)-2,2,2-trifluoro-1-(1-methylpyrrolidin-3-yl)ethanol]
14 |  | 0.01 | 0.005 |  | 0.19 | > 1 | > 0.5 | > 3 | CC(C)N1CC(C(O)(c2ccc(-n3cc(-c4ccnc5[nH]cnc45)cn3)nc2)C(F)(F)F)C1 (centres unmarked) [Example 1237, 1-(6-(4-(3H-imidazo[4,5-b]pyridin-7-yl)-1H-pyrazol-1-yl)pyridin-3-yl)-2,2,2-trifluoro-1-(1-isopropylazetidin-3-yl)ethanol]
